Reference: ChEMBL document CHEMBL1201862, “PubChem BioAssay data set” (2004)
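1) Cells in 96-well plates. 2) Compound, 48 h, 5 concentrations. 3) Linear interpolation between surrounding doses. 4) Unreached endpoint = highest concentration. At the GI50, growth is halved.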 Activity calls are given as the source filed them. No stated cut-off is given here; in the data, active = GI50 up to about 1.1 µM and inactive = higher.

Key:
Assay in all cases: inhibition of tumour cell growth, NCI panel, 48 h
786-0 = system: 786-0
A498 = system: A498
A549 = system: A549
ACHN = system: ACHN
CAKI-1 = system: CAKI-1
DLD-1 = system: DLD-1
DMS-114 = system: DMS-114
DMS-273 = system: DMS-273
EKVX = system: EKVX
HCC 2998 = system: HCC 2998
HCT-116 = system: HCT-116
HCT-15 = system: HCT-15
HL-60 = system: HL-60
HOP-18 = system: HOP-18
HOP-62 = system: HOP-62
HOP-92 = system: HOP-92
HT-29 = system: HT-29
IGROV-1 = system: IGROV-1
K562 = system: K562
KM-20L2 = system: KM-20L2
KM12 = system: KM12
LOX IMVI = system: LOX IMVI
LXFL 529 = system: LXFL 529
M14 = system: M14
M19-MEL = system: M19-MEL
MOLT-4 = system: MOLT-4
Malme-3M = system: Malme-3M
NCI-H226 = system: NCI-H226
NCI-H23 = system: NCI-H23
NCI-H460 = system: NCI-H460
OVCAR-3 = system: OVCAR-3
OVCAR-4 = system: OVCAR-4
OVCAR-5 = system: OVCAR-5
OVCAR-8 = system: OVCAR-8
RPMI-8226 = system: RPMI-8226
RXF 393 = system: RXF 393
SF-268 = system: SF-268
SF-295 = system: SF-295
SF-539 = system: SF-539
SK-MEL-28 = system: SK-MEL-28
SK-MEL-2 = system: SK-MEL-2
SK-MEL-5 = system: SK-MEL-5
SN12C = system: SN12C
SNB-19 = system: SNB-19
SNB-75 = system: SNB-75
SNB-78 = system: SNB-78
SW-620 = system: SW-620
TK-10 = system: TK-10
U-251 = system: U-251
UACC-257 = system: UACC-257
UACC-62 = system: UACC-62
UO-31 = system: UO-31
XF498 = system: XF498

Measured: GI50

COc1ccc(C(=O)C(C(=O)C(=O)Nc2ccc(Cl)c(Cl)c2)c2ccc(OC)cc2)cc1 (stereo not drawn)
> 100 µM: HCT-15
inactive: 786-0 > 100 µM | A498 > 100 µM | A549 > 100 µM | ACHN > 100 µM | CAKI-1 > 100 µM | DLD-1 > 100 µM | DMS-114 76.9 µM | DMS-273 > 100 µM | EKVX > 100 µM | HCC 2998 > 100 µM | HCT-116 > 100 µM | HL-60 78.5 µM | HOP-18 > 100 µM | HOP-62 > 100 µM | HOP-92 > 100 µM | HT-29 > 100 µM | IGROV-1 > 100 µM | K562 > 100 µM | KM-20L2 > 100 µM | KM12 > 100 µM | LOX IMVI > 100 µM | LXFL 529 > 100 µM | M14 > 100 µM | M19-MEL > 100 µM | MOLT-4 > 100 µM | Malme-3M > 100 µM | NCI-H226 > 100 µM | NCI-H23 > 100 µM | NCI-H460 > 100 µM | OVCAR-3 > 100 µM | OVCAR-4 > 100 µM | OVCAR-5 > 100 µM | OVCAR-8 > 100 µM | RPMI-8226 > 100 µM | RXF 393 > 100 µM | SF-268 > 100 µM | SF-295 > 100 µM | SF-539 > 100 µM | SK-MEL-28 > 100 µM | SK-MEL-2 > 100 µM | SK-MEL-5 > 100 µM | SN12C > 100 µM | SNB-19 > 100 µM | SNB-75 57.5 µM | SNB-78 > 100 µM | SW-620 > 100 µM | TK-10 > 100 µM | U-251 > 100 µM | UACC-257 > 100 µM | UACC-62 > 100 µM | UO-31 > 100 µM | XF498 > 100 µM
